From ChEMBL document CHEMBL3301472, “MMV Malaria Box HIV and cytotoxicity screening”

Key:
Type in all cases: toxicity, cell-based
[1] = MMV: MTT Cytotoxicity Assay Day 7 pi of Assay #7 (compound washed out Day 1 pi), U87-CD4-CXCR4 cells, % cell death @ 5mM compound; conditions: human, u87-cd4-cxcr4, 5000 µM
[2] = MMV: MTT Cytotoxicity Assay Day 7 pi of Assay #6 (compound washed out Day 1 pi), U87-CD4-CCR5 cells, % cell death @ 5mM compound; conditions: human, u87-cd4-ccr5, 5000 µM
[3] = MMV: MTT Cytotoxicity Assay Day 7 pi of Assay #11 (NO washout), U87-CD4-CXCR4 cells, % cell death @ 5mM compound; conditions: human, u87-cd4-cxcr4, 5000 µM
[4] = MMV: MTT Cytotoxicity Assay Day 3 pi, U87-CD4-CCR5 cells, % cell death @ 5mM compound; conditions: human, u87-cd4-ccr5, 5000 µM
[5] = MMV: MTT Cytotoxicity Assay Day 7 pi of Assay #10 (NO washout), U87-CD4-CCR5 cells, % cell death @ 5mM compound; conditions: human, u87-cd4-ccr5, 5000 µM
[6] = MMV: MTT Cytotoxicity Assay Day 3 pi, U87-CD4-CXCR4 cells, % cell death @ 5mM compound; conditions: human, u87-cd4-cxcr4, 5000 µM

CC(C)c1ccc(CNCC(O)c2ccccc2)cc1.Cl (stereo unspecified)
% Cell Death [1]: -18 | % Cell Death [2]: -1 | % Cell Death [3]: 3 | % Cell Death [4]: -53 | % Cell Death [5]: 14 | % Cell Death [6]: 29

O=C(NCC1Cc2cccc(-c3ccncc3)c2O1)c1csc2c1CCCC2 (stereo unspecified)
% Cell Death [1]: -22 | % Cell Death [2]: 7 | % Cell Death [3]: 60 | % Cell Death [4]: 4 | % Cell Death [5]: 17 | % Cell Death [6]: 2

CCOc1cc(Br)c(C(C)NC(=O)c2cccc(OC)c2)cc1OCC (stereo unspecified)
% Cell Death [1]: 11 | % Cell Death [2]: 13 | % Cell Death [3]: -7 | % Cell Death [4]: -32 | % Cell Death [5]: 28 | % Cell Death [6]: -7

O=C(NC1CCN(Cc2ccccc2)CC1)c1cc2nc(-c3ccc(Cl)s3)cc(C(F)(F)F)n2n1
% Cell Death [1]: -15 | % Cell Death [2]: -12 | % Cell Death [3]: 11 | % Cell Death [4]: -2 | % Cell Death [5]: 46 | % Cell Death [6]: 31

CN(N=O)C1=C(NC2CCCCC2)C(=O)c2ccccc2C1=O
% Cell Death [1]: 36 | % Cell Death [2]: -53 | % Cell Death [3]: 15 | % Cell Death [4]: 41 | % Cell Death [5]: 30 | % Cell Death [6]: 45

COc1ccc(-c2c(C)nn3c(N)c(C#N)cnc23)cc1OC
% Cell Death [1]: 89 | % Cell Death [2]: 93 | % Cell Death [3]: 93 | % Cell Death [4]: 83 | % Cell Death [5]: 124 | % Cell Death [6]: 98

CCOc1ccccc1CNC(=O)C1c2ccccc2C(=O)N(CC(C)C)C1c1cccs1 (stereo unspecified)
% Cell Death [1]: -26 | % Cell Death [2]: 2 | % Cell Death [3]: 4 | % Cell Death [4]: -26 | % Cell Death [5]: 20 | % Cell Death [6]: 12

COc1cc(C(=O)ON=C(N)Cc2cccc3ccccc23)cc(OC)c1OC
% Cell Death [1]: 4 | % Cell Death [2]: -13 | % Cell Death [3]: -15 | % Cell Death [4]: 14 | % Cell Death [5]: 100 | % Cell Death [6]: 32

COc1ccc2sc(N(Cc3cccnc3)C(=O)c3ccc(C#N)cc3)nc2c1
% Cell Death [1]: -25 | % Cell Death [2]: 2 | % Cell Death [3]: -31 | % Cell Death [4]: -25 | % Cell Death [5]: 2 | % Cell Death [6]: 29

Oc1ccccc1CN1CCC2(CCCN(Cc3ccccc3F)C2)C1 (stereo unspecified)
% Cell Death [1]: 1 | % Cell Death [2]: 36 | % Cell Death [3]: 39 | % Cell Death [4]: -2 | % Cell Death [5]: 44 | % Cell Death [6]: 15

Cc1ccc(N2C3c4ccccc4N(S(=O)(=O)c4ccc(C)cc4)C2c2ccccc2N3S(=O)(=O)c2ccc(C)cc2)cc1
% Cell Death [1]: -17 | % Cell Death [2]: 0 | % Cell Death [3]: -39 | % Cell Death [4]: 26 | % Cell Death [5]: 8 | % Cell Death [6]: 37

O=C(Nc1ccc(F)c(Cl)c1)Nc1ccc(Cl)c(Cl)c1
% Cell Death [1]: -9 | % Cell Death [2]: -6 | % Cell Death [3]: -12 | % Cell Death [4]: -19 | % Cell Death [5]: 22 | % Cell Death [6]: 4

CNCCCNc1ccnc2cc(Cl)ccc12
% Cell Death [1]: 98 | % Cell Death [2]: 97 | % Cell Death [3]: 100 | % Cell Death [4]: 108 | % Cell Death [5]: 124 | % Cell Death [6]: 100

COc1cc(CNCCc2ccc(Cl)cc2)cc(OC)c1O
% Cell Death [1]: 11 | % Cell Death [2]: -15 | % Cell Death [3]: 91 | % Cell Death [4]: -11 | % Cell Death [5]: 18 | % Cell Death [6]: 35

COc1cccc(O)c1CN1CCC2(CCCN(Cc3ccc(F)cc3)C2)C1 (stereo unspecified)
% Cell Death [1]: 21 | % Cell Death [2]: -1 | % Cell Death [3]: 6 | % Cell Death [4]: -63 | % Cell Death [5]: 7 | % Cell Death [6]: -7

COc1ccc(CCNC(=O)c2cc(S(=O)(=O)N3CC(C)CC(C)C3)ccc2Sc2ccc(F)cc2)cc1OC (stereo unspecified)
% Cell Death [1]: 14 | % Cell Death [2]: -8 | % Cell Death [3]: 29 | % Cell Death [4]: 39 | % Cell Death [5]: 27 | % Cell Death [6]: 39
